Read-outs that look alike come from different tables or passages of the source.
Key:
[1] = tested on: epimastigotes of T. cruzi Arequipa strain; test: Screening against extracellular epimastigotes (resazurin); assay type: cell-based, Trypanosoma cruzi; settings: for IC50: Trypanosoma cruzi
Mammalian Vero cells = test: Cytotoxicity test on Vero cells (resazurin); assay type: cell-based; settings: Chlorocebus sabaeus, 72 h; Table 1; Vero cells, 48 h + 24 h resazurin; read-out: Toxicity IC50 Vero Cell
[2] = tested on: Trypanosoma cruzi intracellular amastigotes; test: Screening against intracellular amastigotes in Vero cells (Giemsa counting); assay type: cell-based
Protocol: (§1) Trypanocidal activity against amastigotes was determined according to the literature reported previously. […]. […] Each compound concentration was tested in triplicate in four separate determinations.

[3] = tested on: Trypanosoma cruzi bloodstream trypomastigotes (BTs); test: Screening against bloodstream trypomastigotes (resazurin); assay type: cell-based
Protocol: 2 × 10^6 Bloodstream trypomastigotes (BTs), obtained by cardiac puncture from infected BALB/c mice as previously described, were treated by adding the tested compounds at a concentration range from 50 to 0.1 µM in 96-well microplates (200 µL·well^−1) at 37 °C. After 24 h of treatment, resazurin sodium salt (Sigma-Aldrich) was added to be incubated for further 4 h. Finally, trypanocidal activity was determined following the same procedure as described to assess the trypanocidal activity in the epimastigotes. Each compound concentration was tested in triplicate in three independent experiments.

[4] = tested on: Trypanosoma cruzi amastigotes in Vero cells; test: Infection rate and amastigotes per Vero cell over 10 days; assay type: cell-based; settings: IC25 concentrations, measured at 2 days intervals for 10 days
Protocol: Before going ahead on in vivo trials, the in vitro infection rate and the average number of amastigotes per Vero cell were also measured at 2 days intervals for 10 days after treating the infected cultures with BZN and potential candidates (8, 10, and 15) (Figure 1) at ICH25 concentrations resulting from amastigotes screening. […]. Fast-acting drugs are urgently needed, and this feature is an additional advantage since they can eliminate the parasite in a few doses.
as §1
Figure 1 (A) Percentage of infected Vero cells and (B) number of amastigotes of Trypanosoma cruzi per Vero cell exposed to benznidazole (BZN), 8, 10 and 15. Values constitute means of three separate determinations ± standard deviation. * Significant differences between untreated and treated parasites for α = 0.05. dpi, days post-infection.

Trypanosoma cruzi [5] = test: Parasitemia monitoring in infected BALB/c mice, acute Chagas disease; assay type: in vivo; settings: oral 20 mg/kg per day for 5 days from 9th dpi, versus untreated
Protocol: (§2) Infection was carried out by intraperitoneal inoculation of 5 × 10^5 BTs of T. cruzi per mouse in 0.2 mL PBS [56]. The mice were treated by oral route (~200 µL) once daily for 5 consecutive days. The treatment for mice treated in the acute and chronic phases began when the infection was confirmed (9th day post-infection (dpi)) and was established that the animals had entered the chronic phase (100th dpi), respectively.
(§3) The mice were divided into six groups (n = 3 per group): 0, negative control group (uninfected and untreated mice); I, positive control group (infected and untreated mice); II, BZN group (mice infected and treated with BZN); III, 8 group (mice infected and treated with 8); IV, 10 group (mice infected and treated with 10); V, 15 group (mice infected and treated with 15). The tested compounds and BZN were prepared at 2 mg·mL^−1 in an aqueous suspension vehicle containing 5% (v/v) DMSO and 0.5% (w/v) hydroxypropyl methylcellulose, as previously reported. Therefore, doses of 20 mg·kg^−1 per day were administered for 5 consecutive days, and vehicle only was administered in the negative and positive control groups.
(§4) All in vivo assays for the evaluation of compounds in the acute and chronic CD (Scheme 1)—monitoring of parasitemia, immunosuppression, PCR [59, 60], ELISA [56], and clinical analysis [56]—were performed as previously described. PCR was based on the Spliced Leader (SL) intergenic region sequence of T. cruzi (for detailed description, see literature reported previously).

Trypanosoma cruzi [6] = test: Parasitemia reactivation after immunosuppression in BALB/c mice; assay type: in vivo; settings: 20 mg/kg per day for 5 days, compared to untreated mice
Protocol: Secondly, the experimental cure was determined using a double checking widely used in in vivo trypanocidal trials. This double checking—based on immunosuppression and PCR (Figure 2B,C, respectively)—was performed to evaluate the treatment effectiveness and the disease extent in both acute and chronic CD at the end of the in vivo timeline. The mice whose parasitemia and PCR remain negative after immunosuppression are considered cured.
Immunosuppression enhances the reactivation of any residual infection, which is proportional to the parasite survival rate.
as §2, §3, §4

[7] = tested on: epimastigotes of T. cruzi Arequipa; test: 1H NMR analysis of excreted metabolites; assay type: cell-based, Trypanosoma cruzi; settings: IC25 concentrations, 72 h
Protocol: 5 × 10^5 epimastigotes·mL^−1 of T. cruzi Arequipa were treated by adding the tested compounds at IC25 concentrations in 25 cm^2 cell culture flasks at 28 °C for 72 h. Untreated controls were also included. Cultures were then centrifuged and filtered, and the metabolites of the supernatants were analyzed using a ^1H NMR spectrometer (VARIAN DIRECT DRIVE 500 MHz […]) with AutoX probe, D2O as solvent and 2,2-dimethyl-2-silapentane-5-sulphonate as the reference signal. Chemical shifts were expressed in parts per million (ppm), and analyses were conducted as previously reported.

Trypanosoma cruzi Fe-SOD = test: SOD enzymatic inhibition, Fe-SOD; assay type: biochemical; settings: at 100 µM
Protocol: Excreted Fe-SOD protein—obtained and quantified as previously described [64]—and commercial Cu/Zn-SOD from human erythrocytes (Sigma-Aldrich) were exposed to the tested compounds at a concentration range from 100 to 0.1 µM to determine in vitro activities using the method previously described.

Compound: FC(F)(F)c1ccc(C[Se][Se]Cc2ccc(C(F)(F)F)cc2)cc1 [compound 8]
- Selectivity Index Epimast. ([1]; IC50 Vero cells/IC50 epimastigotes): 23
- IC50 ([1]; Table 1, T. cruzi epimastigotes, 48 h treatment + 24 h resazurin, read-out: Activity IC50 Epimast.): 1.9 ± 0.1 µM
- IC50 ([1]; Table S1, cultured epimastigote form of T. cruzi, read-out: Activity IC50): ≤ 10 µM
- CC50 (Mammalian Vero cells): 44.3 ± 2.7 µM
- Selectivity Index Amast. ([2]; IC50 Vero cells/IC50 amastigotes): 55
- IC50 ([2]; Trypanosoma cruzi, Table 1, intracellular amastigotes in Vero cells, 72 h, read-out: Activity IC50 Amast.): 0.8 ± 0.2 µM
- Selectivity Index Trypomast. ([3]; IC50 Vero cells/IC50 trypomastigotes): 30
- IC50 ([3]; Trypanosoma cruzi, Table 1, bloodstream trypomastigotes, 24 h treatment + 4 h resazurin, read-out: Activity IC50 Trypomast.): 1.5 ± 0.3 µM
- infection rate and average number of amastigotes per Vero cell [4]: decrease in both infection rate and number of amastigotes per cell in a time-dependent manner
- parasitemia levels (counting BTs) during the acute CD (Trypanosoma cruzi [5]): trypanocidal activity was even stronger
- reactivation of infection after immunosuppression (Trypanosoma cruzi [6]; mice treated in acute CD): 67%
- reactivation of infection after immunosuppression (Trypanosoma cruzi [6]; mice treated in chronic CD): 44%
- variation of excreted metabolites versus untreated parasites [7]: < 10%
- Fe-SOD inhibition (Trypanosoma cruzi Fe-SOD): 100%

— publication PMC8147293, “Library of Selenocyanate and Diselenide Derivatives as In Vivo Antichagasic Compounds Targeting Trypanosoma cruzi Mitochondrion” (Pharmaceuticals, 2021)
